Measurements from PMC4406157, “Irreversible endo-Selective Diels–Alder Reactions of Substituted Alkoxyfurans: A General Synthesis of endo-Cantharimides” (Chemistry (Weinheim an Der Bergstrasse, Germany), 2015).

Assays:
[1] = biological target: KCNH2 (human Ether-à-go-go-Related Gene) (Homo sapiens, UniProt Q12809); test: KCNH2 (hERG) Human Antagonist Barracuda Electrophysiology Population Patch Clamp; format: cell-based; conditions: read-out: IC50 hERG receptor (KCNH2 antagonist)
Text: (§1) An important challenge for drug development is the generation of novel heterocyclic building blocks with suitable properties for use in screening and medicinal chemistry programs.[34] The cantharimides accessed using this methodology have appropriate physicochemical properties for lead-like compounds, including lipophilicity,[35] molecular weight and polar surface area[36] (Figure 3). Another attractive feature of these scaffolds is the high proportion of sp^3-hybridized carbon atoms, which is typically associated with improved protein binding selectivity and frequency, better solubility and a reduced chance of off-target effects.[37] Indeed, cantharimides 7, 10, endo-3 f and exo-3 f were screened against the hERG receptor (IC50>50 μM) and the aryl hydrocarbon receptor (EC50>100 μM), which are responsible for common off target effects, and no affinity was observed.
Compound Assay Parameter Value/µM
endo-3f KCNH2 (human Ether -à-go-go-Related Gene) Human Antagonist IC50 >50 […]
(§2) (1 picture or pasted object on this page, not shown here)

[2] = biological target: T1, Aryl Hydrocarbon Receptor (AhR) (Homo sapiens, UniProt P35869); test: Aryl Hydrocarbon Receptor (AhR) Human LS180 CYP1A1 FRET; format: cell-based; conditions: LS180 cells
T1 construct: LS180 CYP1A1 FRET; endogenous in cells; host or cells: LS180
T1 sequence (P35869 11-848): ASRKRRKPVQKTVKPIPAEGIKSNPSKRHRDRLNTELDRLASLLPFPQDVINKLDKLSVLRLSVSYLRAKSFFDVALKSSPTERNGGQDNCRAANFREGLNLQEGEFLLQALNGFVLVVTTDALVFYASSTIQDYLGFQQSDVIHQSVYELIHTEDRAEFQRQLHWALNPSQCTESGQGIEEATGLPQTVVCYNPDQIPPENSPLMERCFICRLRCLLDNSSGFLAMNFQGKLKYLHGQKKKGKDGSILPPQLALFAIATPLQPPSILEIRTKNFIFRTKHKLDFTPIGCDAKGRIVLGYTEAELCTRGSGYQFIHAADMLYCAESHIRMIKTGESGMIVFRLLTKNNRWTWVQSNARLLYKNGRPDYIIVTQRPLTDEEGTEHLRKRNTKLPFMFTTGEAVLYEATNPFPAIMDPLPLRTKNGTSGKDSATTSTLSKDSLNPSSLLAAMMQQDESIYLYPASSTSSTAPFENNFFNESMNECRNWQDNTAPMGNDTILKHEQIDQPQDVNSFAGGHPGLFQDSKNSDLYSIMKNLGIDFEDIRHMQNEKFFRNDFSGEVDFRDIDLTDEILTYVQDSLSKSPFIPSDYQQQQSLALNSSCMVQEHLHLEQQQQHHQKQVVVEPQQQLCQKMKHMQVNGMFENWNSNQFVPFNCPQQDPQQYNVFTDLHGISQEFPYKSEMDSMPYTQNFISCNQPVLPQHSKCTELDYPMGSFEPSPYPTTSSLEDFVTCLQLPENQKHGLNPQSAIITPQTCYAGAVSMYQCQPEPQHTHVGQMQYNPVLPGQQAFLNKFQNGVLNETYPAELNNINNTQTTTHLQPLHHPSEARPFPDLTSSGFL
Text: as §1, with “observed. […]” for “observed.”
endo-3f Aryl Hydrocarbon Receptor (AhR) Human LS180 CYP1A1 FRET - EC50 >100
exo-3f Aryl Hydrocarbon Receptor (AhR) Human LS180 CYP1A1 FRET - EC50 >100
7 Aryl Hydrocarbon Receptor (AhR) Human LS180 CYP1A1 FRET - EC50 >100
10 Aryl Hydrocarbon Receptor (AhR) Human LS180 CYP1A1 FRET - EC50 >100
as §2

[3] = in vitro clearance in the presence of human microsomes; format: in vitro ADME; conditions: IVC testing performed by Cyprotex
Text: as §1
[38] IVC testing performed by Cyprotex, 15 Beech Lane, Macclesfield, Cheshire, SK10 2DR, UK

Sequence of KCNH2 (human Ether-à-go-go-Related Gene) (Q12809 whole entry): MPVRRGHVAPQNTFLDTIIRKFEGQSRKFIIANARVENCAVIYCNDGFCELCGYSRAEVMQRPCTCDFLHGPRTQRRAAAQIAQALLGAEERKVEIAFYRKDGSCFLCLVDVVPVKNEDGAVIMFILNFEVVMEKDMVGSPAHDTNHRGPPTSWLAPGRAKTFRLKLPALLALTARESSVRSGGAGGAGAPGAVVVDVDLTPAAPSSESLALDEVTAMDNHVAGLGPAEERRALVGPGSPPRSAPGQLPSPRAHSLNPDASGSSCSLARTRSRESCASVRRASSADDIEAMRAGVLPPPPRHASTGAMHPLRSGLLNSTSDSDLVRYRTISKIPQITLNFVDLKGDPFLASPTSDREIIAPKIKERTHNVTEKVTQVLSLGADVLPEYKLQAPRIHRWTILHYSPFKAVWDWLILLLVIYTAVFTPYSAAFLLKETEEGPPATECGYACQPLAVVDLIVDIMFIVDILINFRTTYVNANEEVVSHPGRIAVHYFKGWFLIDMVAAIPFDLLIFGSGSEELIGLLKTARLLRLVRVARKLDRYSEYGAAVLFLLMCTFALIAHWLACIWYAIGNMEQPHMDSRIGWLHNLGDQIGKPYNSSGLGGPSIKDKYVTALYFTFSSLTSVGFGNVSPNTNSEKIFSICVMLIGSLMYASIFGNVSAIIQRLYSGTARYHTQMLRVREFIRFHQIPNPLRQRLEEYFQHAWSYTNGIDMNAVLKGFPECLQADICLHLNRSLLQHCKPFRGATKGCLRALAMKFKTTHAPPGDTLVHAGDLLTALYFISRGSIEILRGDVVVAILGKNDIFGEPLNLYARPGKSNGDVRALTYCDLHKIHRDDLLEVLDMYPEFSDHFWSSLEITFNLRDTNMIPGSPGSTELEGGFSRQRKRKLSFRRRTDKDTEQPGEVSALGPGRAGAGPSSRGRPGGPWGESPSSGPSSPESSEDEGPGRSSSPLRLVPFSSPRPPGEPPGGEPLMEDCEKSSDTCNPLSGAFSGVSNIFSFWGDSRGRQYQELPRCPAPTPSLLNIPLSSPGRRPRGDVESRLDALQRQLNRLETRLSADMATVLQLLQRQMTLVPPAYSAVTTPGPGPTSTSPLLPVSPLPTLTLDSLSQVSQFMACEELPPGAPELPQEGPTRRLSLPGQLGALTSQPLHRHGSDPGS

SMILES	IC50 [1] [µM]	EC50 [2] [µM]	in vitro clearance [3] [mL/min/g]
CCOC1CC2OC1(c1ccccc1)C1C(=O)N(C)C(=O)C21 (stereo not drawn) [compound 7]	> 50	> 100	–
CN1C(=O)C2C3CC(O)C(c4ccccc4)(O3)C2C1=O (stereo not drawn) [compound 10]	> 50	> 100	< 0.53
CCOC1=CC2OC1(c1ccccc1)C1C(=O)N(C)C(=O)C21 (stereo not drawn) [endo-3 f]	> 50	> 100	–
CCOC1=C[C@H]2O[C@]1(c1ccccc1)[C@@H]1C(=O)N(C)C(=O)[C@@H]12 [exo-3 f]	> 50	> 100	–
